# Read-outs that look alike come from different tables or passages of the source.
# Experiments:
# Assay type in all cases: cell-based, human
# HTT = assay: HiBiT protein abundance assay, HTT HiBiT K562 cell line; details: 24 hours, top dose 10 μM
# How it was run: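 K562 knock-in lines with endogenous HiBiT-tagged target, 10,000 cells/well in IMDM + FBS, treated 24 h at 37° C with 10-point 3-fold dilutions (top 10 μM final; DMSO ≤0.25%). Lytic Nano-Glo HiBiT luminescence normalized to untagged K562 baseline and DMSO controls; IC50 = concentration giving 50% abundance via four-parameter fit.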
# HTT mRNA = assay: RT-qPCR splicing assay, HTT canonical junction (CJ) and alternative junction (AJ) mRNA; details: Homo sapiens; for AC50: increase in HTT alternative junction (AJ) mRNA, read-out: HTT AJ AC50
# How it was run: (§1)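 A673 cells (normalized to PPIA) or K562 cells (normalized to GAPDH or GUSB) were treated 24 h at 37 °C with an 11-point 3-fold dilution series, top 10 uM, DMSO ≤0.25%. Cell lysates went to one-step RT-qPCR measuring canonical- and alternative-junction MYB or HTT transcripts.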
# MYB mRNA = assay: RT-qPCR splicing assay, MYB canonical junction (CJ) and alternative junction (AJ) mRNA; details: Homo sapiens; for AC50: increase in MYB alternative junction (AJ) mRNA, read-out: MYB AJ AC50
# How it was run: as §1
# [1] = decrease in HTT canonical junction (CJ) mRNA, RT-qPCR, read-out: HTT CJ IC50
# [2] = canonical junction qPCR panel, Table 5, read-out: HTT (decrease in CJ mRNA levels, IC50)
# [3] = canonical junction qPCR panel, Table 5, read-out: MYB (decrease in CJ mRNA levels, IC50)
# [4] = decrease in MYB canonical junction (CJ) mRNA, RT-qPCR, read-out: MYB CJ IC50
# [5] = HiBiT K562 cell line, read-out: Effect on protein abundance, HTT (IC50 category)
# [6] = Table 5 panel, canonical junction qPCR, compound concentration having 50% response in CJ decrease, read-out: HTT IC50 (decrease in CJ mRNA levels)
# [7] = Table 5 panel, canonical junction qPCR, compound concentration having 50% response in CJ decrease, read-out: MYB IC50 (decrease in CJ mRNA levels)
Compound,"IC50 (HTT; HiBiT lytic detection, modified K562 cells, read-out: Effect on protein abundance, HTT (IC50))",IC50 (HTT mRNA; [1]),AC50 (HTT mRNA; RT-qPCR),IC50 (HTT mRNA; [2]),IC50 (MYB mRNA; [3]),IC50 (MYB mRNA; [4]),AC50 (MYB mRNA; RT-qPCR),IC50 (HTT; [5]),IC50 (HTT mRNA; [6]),IC50 (MYB mRNA; [7])
"Cc1cn2nc(-c3ccc4c(=O)n(C5CC(C)N[C@H](C)C5)ncc4n3)cc(C)c2n1 (stereo in doubt) [Compound 1536, 2-(2,8-dimethylimidazo[1,2-b]pyridazin-6-yl)-6-[(2S,6R)-2,6-dimethyl-4-piperidyl]pyrido[2,3-d]pyridazin-5-one]",100 to 1000 nM,100 to 1000 nM,100 to 1000 nM,100 to 1000 nM,100 to 1000 nM,100 to 1000 nM,100 to 1000 nM,–,–,–
"Cc1cn2nc(-c3ccc4c(=O)n(C5C[C@@H](C)N[C@H](C)C5)ncc4n3)cc(C)c2n1 (stereo in doubt) [Compound 1537, 2-(2,8-dimethylimidazo[1,2-b]pyridazin-6-yl)-6-[(2R,6R)-2,6-dimethyl-4-piperidyl]pyrido[2,3-d]pyridazin-5-one]",–,100 to 1000 nM,100 to 1000 nM,100 to 1000 nM,100 to 1000 nM,100 to 1000 nM,100 to 1000 nM,100 to 1000 nM,–,–
"Cc1cn2nc(-c3ccc4c(=O)n([C@H]5CC(C)N[C@@H](C)C5)ncc4n3)cc(C)c2n1 (stereo in doubt) [Compound 1538, 2-(2,8-dimethylimidazo[1,2-b]pyridazin-6-yl)-6-[(2S,6S)-2,6-dimethyl-4-piperidyl]pyrido[2,3-d]pyridazin-5-one]",–,100 to 1000 nM,100 to 1000 nM,100 to 1000 nM,100 to 1000 nM,100 to 1000 nM,100 to 1000 nM,100 to 1000 nM,–,–
Cc1cn2cc(-c3ccc4c(=O)n(C5CCNCC5)cnc4c3)cc(F)c2n1 [Compound 205],–,100 to 1000 nM,100 to 1000 nM,–,–,100 to 1000 nM,100 to 1000 nM,100 to 1000 nM,100 to 1000 nM,100 to 1000 nM
Cn1cc2cc(-c3ccc4c(=O)n(C5CCNCC5)cnc4c3)cc(F)c2n1 [Compound 206],–,100 to 1000 nM,100 to 1000 nM,–,–,< 100 nM,100 to 1000 nM,100 to 1000 nM,100 to 1000 nM,100 to 1000 nM
Cc1cn2cc(-c3ccc4c(=O)n(C5CCN(C)CC5)cnc4c3)cc(F)c2n1 [Compound 207],–,1000 to 10000 nM,1000 to 10000 nM,–,–,1000 to 10000 nM,1000 to 10000 nM,1000 to 10000 nM,1000 to 10000 nM,1000 to 10000 nM
CN1CCC(n2cnc3cc(-c4ccc5nn(C)cc5c4)ccc3c2=O)CC1 [Compound 208],–,1000 to 10000 nM,> 10000 nM,–,–,1000 to 10000 nM,1000 to 10000 nM,1000 to 10000 nM,> 10000 nM,1000 to 10000 nM
CN1CCC(n2cnc3cc(-c4cc(F)c5nn(C)cc5c4)ccc3c2=O)CC1 [Compound 209],–,100 to 1000 nM,1000 to 10000 nM,–,–,100 to 1000 nM,100 to 1000 nM,> 10000 nM,1000 to 10000 nM,100 to 1000 nM
Cc1cn2cc(-c3ccc4c(=O)n(C5CCNCC5)cnc4c3F)cc(F)c2n1 [Compound 210],–,1000 to 10000 nM,1000 to 10000 nM,–,–,1000 to 10000 nM,1000 to 10000 nM,1000 to 10000 nM,1000 to 10000 nM,1000 to 10000 nM
Cc1nc2c(F)cc(-c3ccc4c(c3)CCN(C3CCNCC3)C4=O)cc2o1 [Compound 215],–,1000 to 10000 nM,1000 to 10000 nM,–,–,1000 to 10000 nM,1000 to 10000 nM,100 to 1000 nM,1000 to 10000 nM,1000 to 10000 nM
"Cc1cn2cc(-c3ccc4c(c3)CCN(C3CCNCC3)C4=O)cc(Cl)c2n1 [Compound 216, 6-[8-chloro-2-methylimidazo[1,2-a]pyridin-6-yl]-2-(piperidin-4-yl)-3,4-dihydroisoquinolin-1-one]",–,1000 to 10000 nM,1000 to 10000 nM,–,–,1000 to 10000 nM,100 to 1000 nM,100 to 1000 nM,1000 to 10000 nM,100 to 1000 nM
"Cc1cn2cc(-c3ccc4c(c3)CCN(C3CCNCC3)C4=O)cc(C)c2n1 [Compound 217, 6-[2,8-dimethylimidazo[1,2-a]pyridin-6-yl]-2-(piperidin-4-yl)-3,4-dihydroisoquinolin-1-one]",–,1000 to 10000 nM,1000 to 10000 nM,–,–,1000 to 10000 nM,1000 to 10000 nM,100 to 1000 nM,1000 to 10000 nM,1000 to 10000 nM
"Cc1cn2cc(-c3ccc4c(c3)CCN(C3CCNCC3)C4=O)c(C)cc2n1 [Compound 218, 6-[2,7-dimethylimidazo[1,2-a]pyridin-6-yl]-2-(piperidin-4-yl)-3,4-dihydroisoquinolin-1-one]",–,1000 to 10000 nM,1000 to 10000 nM,–,–,1000 to 10000 nM,1000 to 10000 nM,1000 to 10000 nM,1000 to 10000 nM,1000 to 10000 nM
"Cc1cc(-c2ccc3c(c2)CCN(C2CCNCC2)C3=O)cc2cn(C)nc12 [Compound 219, 6-(2,7-dimethylindazol-5-yl)-2-(piperidin-4-yl)-3,4-dihydroisoquinolin-1-one]",–,1000 to 10000 nM,1000 to 10000 nM,–,–,100 to 1000 nM,100 to 1000 nM,100 to 1000 nM,1000 to 10000 nM,100 to 1000 nM
"O=C1c2ccc(-c3cn[nH]c3)cc2CCN1C1CCNCC1 [Compound 220, 2-(piperidin-4-yl)-6-(1H-pyrazol-4-yl)-3,4-dihydroisoquinolin-1-one]",–,> 10000 nM,> 10000 nM,–,–,> 10000 nM,> 10000 nM,> 10000 nM,> 10000 nM,> 10000 nM
"Cc1cn2cc(-c3ccc4c(c3)CCN(C3CCNCC3)C4=O)nc2c(C)n1 [Compound 221, 6-[6,8-dimethylimidazo[1,2-a]pyrazin-2-yl]-2-(piperidin-4-yl)-3,4-dihydroisoquinolin-1-one]",–,> 10000 nM,> 10000 nM,–,–,> 10000 nM,> 10000 nM,> 10000 nM,> 10000 nM,> 10000 nM
"Cc1cn2nc(-c3ccc4c(c3)CCN(C3CCNCC3)C4=O)nc2c(C)n1 [Compound 222, 6-[6,8-dimethyl-[1,2,4]triazolo[1,5-a]pyrazin-2-yl]-2-(piperidin-4-yl)-3,4-dihydroisoquinolin-1-one]",–,1000 to 10000 nM,1000 to 10000 nM,–,–,1000 to 10000 nM,1000 to 10000 nM,1000 to 10000 nM,1000 to 10000 nM,1000 to 10000 nM
"Cc1cn2nc(-c3ccc4c(c3)CCN(C3CCNCC3)C4=O)cc2c(C)n1 [Compound 223, 6-[4,6-dimethylpyrazolo[1,5-a]pyrazin-2-yl]-2-(piperidin-4-yl)-3,4-dihydroisoquinolin-1-one]",–,1000 to 10000 nM,1000 to 10000 nM,–,–,100 to 1000 nM,100 to 1000 nM,1000 to 10000 nM,1000 to 10000 nM,100 to 1000 nM
Cc1cn2cc(-c3ccc4c(c3)CCN(C3CCNCC3)C4=O)ncc2n1 [Compound 224],–,> 10000 nM,> 10000 nM,–,–,1000 to 10000 nM,> 10000 nM,> 10000 nM,> 10000 nM,> 10000 nM
